Laboratory results taken from paper PMC5309247, “A Role of Corazonin Receptor in Larval-Pupal Transition and Pupariation in the Oriental Fruit Fly Bactrocera dorsalis (Hendel) (Diptera: Tephritidae)” (Frontiers in Physiology, 2017).
Where two headings read alike, the source gives them in different places.

Columns and labels:
DmCrzR = details: ref Cazzamali et al., [2002], Park et al., [2002b], cited from earlier work
Text: (§1) The CrzR is a member of the GPCR family having seven TM domains. Since the first CrzR was identified in Drosophila, homologous receptors have been predicted in several genome databases (Sha et al., [2012]).

[1] = test system: head-ligated B. dorsalis larvae; assay: Rescue of larval-pupal transition by peptide injection in head-ligated larvae; format: in vivo, Bactrocera dorsalis; details: 0.3 pmol in 300 nL, 24 h post-injection; for rescue of pupariation in head-ligated larvae: in words
Protocol: The peptides of Crz and ETH of B. dorsalis were synthesized by Genescript (Nanjing, China), and the adipokinetic hormone (AKH) peptide of Bombyx mori (BmAKH) was a gift from Dr. Naiming Zhou (Zhejing University, China; Yang et al., [2013]). The amino acid (aa) sequences for Crz, ETH and AKH were added in Table 1. Plasmids were prepared using the MIDIprep kit as purchased from Qiagen (Valencia, CA). The reagents for cell culture and GPCR assay were purchased from Gibco cell culture at Life Technologies (Grand Island, NY), including fetal bovine serum, DMEM/F12 medium, fungizone, penicillin/streptomycin, and coelenterazine. The transfection reagent (TransIt) was purchased from Mirus Bio (Madison, WI).
The experimental setup with head-ligated 2-day-old 3rd-instar larvae was based on a previous study (Kim et al., [2004]). […] Upon head-ligation, a series of larvae was injected with Crz (0.3 pmol in 300 nL) or ETH (0.3 pmol in 300 nL). Upon injection larvae were kept on an artificial diet as described above, and we scored pupal development at 24 h post-injection. Per treatment, we used 20 larvae and three biological replicates were conducted. Typical phenotype effects were captured with a Leica M205A stereomicroscope with a camera (Leica Microsystems, Wetzlar, Germany).

BdCrzR = assay: Ca2+ mobilization luminescence (aequorin) assay in BdCrzR-expressing CHO cells; format: cell-based, Bactrocera dorsalis; details: for Ca2+ response of BdCrzR-expressing CHO cells: CHO cells with aequorin and Gα16, 10-fold serial dilution of peptide
Protocol: The ORF for BdCrzR was inserted into the expression vector pcDNA3.1 (+). The correct clone of pcDNA3.1-BdCrzR was confirmed by sequencing (Invitrogen). Chinese Hamster Ovary (CHO) cells, supplemented with aequorin, and Gα16 subunit, were employed for the heterologous expression. The methods for the transfection and the Ca^2+ mobilization assay were performed as previously described (Jiang et al., [2014]). Briefly, cells were transfected with the pcDNA3.1(+)-BdCrzR using TransIT-LT1 transfection reagent (Mirus Bio). At 30 h after the transfection, the cells were collected and incubated with the coelenterazine (Invitrogen) for 2.5 h prior to the functional assay. The cells transfected with the empty pcDNA3.1 vector, were used as a negative control.
The luminescence assay was performed by measuring the intracellular Ca^2+ mobilization of the transfected CHO cells. A 10-fold serial dilution of the peptides (BdCrz and BmAKH) was applied to the cells. The luminescence caused by the intracellular calcium mobilization was measured within 20 s in every half-second intervals by a TriStar^2 LB 942 Multimode Reader (Berthold Technologies, Bad Wildbad, Germany; Jiang et al., [2013], [2014]). The lowest concentration of BdCrz ligand showing the maximum activation of the receptor, was selected for luminescence normalization. Based on that, a concentration-response curve was calculated for BdCrz by logistic fitting in Origin 8.6 (OriginLab Corporation, Northampton, MA). All experiments were conducted with three biological replicates.

Schistocerca americana = details: ref Veenstra, [1991]; cited from earlier work
Text: (§2) Neuropeptides play a central role in regulating numerous vital physiological systems and behavioral events in diverse insects. The multiple functions of insect neuropeptides make them a prime practical potential target in the development of novel insect control agents (Boonen et al., [2009]).

MsCrzR = details: ref Kim et al., [2004], cited from earlier work
Text: as §1

Bombyx mori larvae = details: injection into larvae; ref Tanaka et al., [2002]; cited from earlier work
Text: Crz is highly conserved with respect to spatial expression pattern, but no clear pattern of function has emerged.

Periplaneta americana = details: ref Veenstra, [1989]; cited from earlier work
Text: as §2

**Q.** For “DmCrz: Corazonin of Drosophila melanogaster (NP_524350.1) (QTFQYSRGWTN; Corazonin; UniProt Q26377 20-30, looked up)”, which EC50 (DmCrzR; DmCrzR-transfected CHO cells) is on record?
**A.** 18 nM

**Q.** And the EC50 (DmCrzR; Xenopus oocyte cells)?
**A.** 1 nM

**Q.** For “pAsn-Glu-Ser-Pro-Gly-Phe-Phe-Leu-Lys-Ile-Thr-Lys-Asn-Val-Pro-Arg-Leu-NH2 [BdETH, ecdysis-triggering hormone (ETH) of B. dorsalis, synthesized by Genescript, reference compound]”, which “rescue of pupariation in head-ligated larvae” value [1] is on record?
**A.** the same result was also observed

**Q.** With “pCys-Glu-Leu-Thr-Phe-Ser-Pro-Asp-Thr-NH2 [BmAKH, adipokinetic hormone (AKH) peptide of Bombyx mori, reference compound]” as the substance, how does the “Ca2+ response of BdCrzR-expressing CHO cells” value (from here on “Ca2+ response”) (BdCrzR) read?
**A.** no responses

**Q.** And the “Ca2+ response” value (BdCrzR; listed as AKH)?
**A.** did not respond

**Q.** Which dark-inducing activity (Schistocerca americana) does the source give for “pGln-Thr-Phe-Gln-Tyr-Ser-His-Gly-Trp-Thr-Asn-NH2 [[His^7]-Crz]” here?
**A.** dark-inducing peptide

**Q.** Which EC50 (BdCrzR; CHO cells with aequorin and Gα16, transiently expressing BdCrzR, Ca2+ luminescence within 20 s, logistic fit, three independent measurements, each three replicates) does the source give for “pGln-Thr-Phe-Gln-Tyr-Ser-His-Gly-Trp-Thr-Ser-NH2 [BdCrz, mature corazonin of Bactrocera dorsalis, …amide, synthesized by Genescript]” here?
**A.** 52.5 nM

**Q.** What about the “Ca2+ response” value (BdCrzR) of the same substance?
**A.** concentration-dependent Ca^2+ responses

**Q.** What about the “head-ligated larvae that made the transition from the larval to the pupal stage” value ([1]; 20 larvae per treatment, three biological replicates) of the same substance?
**A.** 97%

**Q.** And the “rescue of pupariation in head-ligated larvae” value [1]?
**A.** could rescue the effects

**Q.** And the EC50 (MsCrzR; CHO)?
**A.** 0.2 nM

**Q.** And the EC50 (MsCrzR; Xenopus oocyte-expression system)?
**A.** 0.075 nM

**Q.** What about the pupal development (Bombyx mori larvae) of the same substance?
**A.** prolonged pupal development

**Q.** What about the silk spinning rate (Bombyx mori larvae) of the same substance?
**A.** reduced the silk spinning rate

**Q.** And the cardioacceleratory activity (Periplaneta americana)?
**A.** cardioacceleratory peptide
